In patent publication US4313943A, “7-Chloro-2,3-dihydro-5-phenyl-1-propargyl-1H-1,4-benzodiazepine-2-one, and a pharmaceutical composition thereof” (priority 1972, dated 1982):
Entries after “also recorded” stand apart in the source; their conditions may differ.

Assays:
[1] = Electrogenesis of various subcortical centers; type: in vivo; conditions: in vivo
Experimental: This study was conducted with test animals weighing between 2.6 and 2.8 kg, following the stereotaxic method of Monnier and Gangloff (Atlas et techniques stereotaxique pour le cerveau du lopin eveille, 1961, Elsevier Pub. Co.), permitting the stimulation of certain subcortical structures as well as a simultaneous detection and recording of their electrical activities, which were compared to that of reference cortical electrodes. In this study, the subcortical centers considered were the caudate nucleus, the dorsal hippocampus, the lateral thalamus, the mesenephalic reticular formation, and the hypothalamic reticular formation. Test compounds 1 and 4 were administered by the intragastric route with an identical dose of 7.5 mg/kg.
Spontaneous activity in the subcortical centers of the unanesthetized animals is characterized by desynchronized activity consisting of high amplitude and relatively slow rhythms (4 to 5 c/sec.), alternating with low amplitude rapid rhythms (12 to 13 c/sec.). Tracings from the hippocampus and caudate nucleus sometimes takes the form of bursts, which is less commonly the case from the thalamus. These may occur at the same time as bursts of rapid spikes arising from the frontal cortex. During periods of arousal, this desynchronized activity is followed by a synchronized theta rhythm (7 to 8 c/sec.) from the hippocampus and caudate nucleus and from the median thalamus, whereas the cortical and reticular electrical activities are transformed into ultra-rapid and low voltage rhythms (30μ volts).

[2] = Anti-convulsant activity in the mouse (convulsions induced by 1,5-pentamethylenetetrazole); type: in vivo; conditions: 30 min before pentamethylenetetrazole s.c.
Experimental: The inhibition of convulsions induced by 1,5-pentamethylenetetrazole was tested by the Clen method. The test compounds were administered orally to the mice, in the doses shown in Table 3, in the form of suspensions in 1% sodium carboxymethyl cellulose solution, and 30 minutes later the test animals were injected subcutaneously with […] of 1,5-pentamethylenetetrazole. The number of mice protected from lethal extensorial tonic spasms, per group of 10 test animals, was recorded.

[3] = Myorelaxant activity in the mouse (traction test); type: in vivo; conditions: after 30 minutes
Experimental: This was determined by the traction test of Joulon Courvoisier, following Boissier and Simon, in which the mouse is suspended by its front paws to a horizontal metal wire, and the animal's capacity to get up with its hind paws is observed. The test compounds were administered orally to the animals, in the doses shown in Table 5, as suspensions in 1% sodium carboxymethyl cellulose solution; and the animals were tested 30 minutes and 180 minutes after administration. The test animals were deemed to be myorelaxant if unable to get up within 5 seconds.

[4] = Acute toxicity in the rat (oral); conditions: in vivo
Experimental: (§1) The test compounds shown in Table 2 were administered orally to male mice and rats in the form of a suspension in a 1% solution of sodium carboxymethyl cellulose. The LD50 (lethal dose 50%) was calculated by the method of Litchfield and Wilcoxon.

[5] = Acute toxicity in the mouse (oral); conditions: in vivo, mouse (male)
Experimental: as §1

[6] = Potentiation of narcosis (hexobarbitone sodium) in the mouse, Winter method; type: in vivo; conditions: hexobarbitone sodium 80 mg/kg i.p., control 33.3
Experimental: The Winter method was used, in which a state of narcosis is induced by the intraperitoneal administration of 80 mg/kg of hexobarbitone sodium, and is assessed by the loss of the righting reflex in the test animal. […] orally to the animals, in doses shown in Table 4, as suspensions in 1% sodium carboxymethyl cellulose solution; and the prolongation of narcosis in the animals thus treated was observed, by comparison with controls which received only the hexobarbitone administration.

[7] = Effect on muscular relaxation in mice (30° inclined screen, Randall); type: in vivo
Experimental: The method utilized was the procedure described by Randall (1961) using a 30° inclined screen.

[8] = Hypnotic activity comparison (Janssen 1959); type: in vivo; conditions: Table 11; species not given
Experimental: Toxicity in test animals to the test compounds in terms of LD50 after oral and intraperitoneal administration was determined according to the procedure of Litchfield and Wilcoxan (1949) and the hypnotic effect on test animals was determined in accordance with the method of Janssen (1959).

[9] = Motor coordination in rats (rotarod, Dunham and Miya 1957); conditions: 68 mg/kg/os
[10] = Convulsions induced by pentamethylenetetrazol in rats; type: in vivo
Experimental: The method utilized was according to the method published by Everett and Richards (1944) and Banziger (1965). The pentamethylenetetrazol was given subcutaneously (125 mg/kg) and the test compounds were given orally suspended in a 1% carboxymethyl cellulose solution.

[11] = ECoG and sedation in test animals free to move; type: in vivo; conditions: unrestricted animals; compound 3 at 10 mg/kg
Experimental: Some test animals were kept in restraint cases placed in a relatively soundproof room and some were left free to move in metal cases measuring 40×50×30 cm, which were also kept in a relatively quiet environment.
In the test animals which were free to move, the first signs of sedation produced by the intragastric administration of 7.5 mg/kg of compounds 1 and 4 appeared, respectively, at 16 minutes (compound 1) and at 8 minutes (compound 4). […] The duration of the effect was, however, shorter, not exceeding 3 hours under these conditions in contrast to the 5 hour minimum for restricted animals.

CNC1=Nc2ccc(Cl)cc2C(c2ccccc2)=[N+]([O-])C1 [Librium, reference compound]
EEG activity of the hippocampus [1]: depressed; also recorded: reduction in the amplitude of the hippocampal rhythm

C#CCN1C(=O)CN=C(c2ccccc2)c2cc([N+](=O)[O-])ccc21 [Compound 2, 7-nitro-2,3-dihydro-5-phenyl-1-propargyl-1H-1,4-benzodiazepin-2-one]
No. of Animals Protected ([2]; 0.12 mg/kg oral): 1/10
No. of Animals Protected ([2]; 0.25 mg/kg oral): 4/10
No. of Animals Protected ([2]; 0.5 mg/kg oral): 9/10
Percentage of myorelaxant animals ([3]; 1.0 mg/kg oral): 10%
Percentage of myorelaxant animals ([3]; 2.0 mg/kg oral): 20%
Percentage of myorelaxant animals ([3]; 4.0 mg/kg oral): 40%
Percentage of myorelaxant animals ([3]; 8.0 mg/kg oral): 60%
LD50 [4]: 876 mg/kg
LD50 [5]: 1880 mg/kg
Duration of narcosis ([6]; 0.5 mg/kg oral): 53.4 min
Duration of narcosis ([6]; 1.0 mg/kg oral): 94.5 min
Duration of narcosis ([6]; 2.0 mg/kg oral): 195.1 min

CN1C(=O)CN=C(c2ccccc2)c2cc(Cl)ccc21 [Compound 3, 7-chloro-1,3-dihydro-1-methyl-5-phenyl-2H-1,4-benzodiazepin-2-one, reference compound]
EEG activity of the hippocampus ([1]; listed as Valium): depressed; also recorded: reduction in the amplitude of the hippocampal rhythm
% Relaxed Animals ([7]; 10 mg/kg/os): 20%
ED50 ([7]; Mus musculus, po, muscular relaxation, read-out: ED50 (and C.L.)): 14.1 mg/kg
ED50 [8]: 242 mg/kg
% Uncoordinated Animals [9]: 50%
ED50 ([10]; Rattus norvegicus, oral, protection against pentamethylenetetrazol, read-out: ED50 (and C.L.) (converted)): 7.8 mg/kg
% Protected Animals ([10]; Time 90 min.): 20%
% Protected Animals ([10]; Time 120 min.): 10%
% Protected Animals ([10]; Time 180 min.): 0%
% Protected Animals ([10]; Time 240 min.): 0%
duration of ECoG effects (three compounds compared) [11]: about 31/2
